Experiments:
ROCK1 = ROCK1 (Homo sapiens (Human), UniProt Q13464); experiment: In vitro inhibitory activity against ROCK protein kinase (33P-ATP filter-binding), ROCK1; format: biochemical; conditions: 1 nM ROCK protein kinase, 20 μM Long S6 Kinase substrate peptide
Method: (§1) 1. In Vitro Evaluation of the Inhibitory Activity Against ROCK Protein Kinase
(§2) Experimental purpose: to detect the inhibitory IC50 value of the compound against ROCK protein kinase.
(§3) Assay buffer solution: 20 mM 4-hydroxyethylpiperazine ethanesulfonic acid (pH 7.5), 10 mM magnesium chloride, 1 mM ethylene glycol-bis-(2-aminoethyl)tetraacetic acid, 0.02% polyethylene glycol monododecyl ether, 0.02 mg/mL bovine serum albumin, 0.1 mM sodium vanadate, 2 mM dithiothreitol, 1% DMSO.
(§4) The freshly prepared buffer solution was added to ROCK protein kinase substrate (Long S6 Kinase substrate peptide), at a concentration of 20 μM, then 1 nM ROCK protein kinase was added thereto and stirred evenly. Echo550 was used to add a series of DMSO dilutions containing the test compound (starting from 10 μM, serially diluted by 3 times), the solution was pre-incubated at room temperature for 20 minutes, then ^33P-ATP (radiation intensity 10 μCi/μL) was added to initiate the reaction, and the reaction was performed at room temperature for two hours. Then the solution was filtered by P81 ion exchange paper (Whatman #3698-915) and washed with 0.75% phosphoric acid. The radiation intensity was determined by Filter-Binding method.
(§5) The protein kinase inhibitory activity of the compound was expressed as the remaining protein kinase activity relative to the blank substrate (simply DMSO). Prism software package (GraphPad Software, San Diego Calif., USA) was used to calculate IC50 value and the curve.

ROCK2 = ROCK2 (Homo sapiens (Human), UniProt O75116); experiment: In vitro inhibitory activity against ROCK protein kinase (33P-ATP filter-binding), ROCK2; format: biochemical; conditions: 1 nM ROCK protein kinase, 20 μM Long S6 Kinase substrate peptide
Method: as §1, §2, §3, §4, §5

Chain of ROCK2 (O75116 whole entry): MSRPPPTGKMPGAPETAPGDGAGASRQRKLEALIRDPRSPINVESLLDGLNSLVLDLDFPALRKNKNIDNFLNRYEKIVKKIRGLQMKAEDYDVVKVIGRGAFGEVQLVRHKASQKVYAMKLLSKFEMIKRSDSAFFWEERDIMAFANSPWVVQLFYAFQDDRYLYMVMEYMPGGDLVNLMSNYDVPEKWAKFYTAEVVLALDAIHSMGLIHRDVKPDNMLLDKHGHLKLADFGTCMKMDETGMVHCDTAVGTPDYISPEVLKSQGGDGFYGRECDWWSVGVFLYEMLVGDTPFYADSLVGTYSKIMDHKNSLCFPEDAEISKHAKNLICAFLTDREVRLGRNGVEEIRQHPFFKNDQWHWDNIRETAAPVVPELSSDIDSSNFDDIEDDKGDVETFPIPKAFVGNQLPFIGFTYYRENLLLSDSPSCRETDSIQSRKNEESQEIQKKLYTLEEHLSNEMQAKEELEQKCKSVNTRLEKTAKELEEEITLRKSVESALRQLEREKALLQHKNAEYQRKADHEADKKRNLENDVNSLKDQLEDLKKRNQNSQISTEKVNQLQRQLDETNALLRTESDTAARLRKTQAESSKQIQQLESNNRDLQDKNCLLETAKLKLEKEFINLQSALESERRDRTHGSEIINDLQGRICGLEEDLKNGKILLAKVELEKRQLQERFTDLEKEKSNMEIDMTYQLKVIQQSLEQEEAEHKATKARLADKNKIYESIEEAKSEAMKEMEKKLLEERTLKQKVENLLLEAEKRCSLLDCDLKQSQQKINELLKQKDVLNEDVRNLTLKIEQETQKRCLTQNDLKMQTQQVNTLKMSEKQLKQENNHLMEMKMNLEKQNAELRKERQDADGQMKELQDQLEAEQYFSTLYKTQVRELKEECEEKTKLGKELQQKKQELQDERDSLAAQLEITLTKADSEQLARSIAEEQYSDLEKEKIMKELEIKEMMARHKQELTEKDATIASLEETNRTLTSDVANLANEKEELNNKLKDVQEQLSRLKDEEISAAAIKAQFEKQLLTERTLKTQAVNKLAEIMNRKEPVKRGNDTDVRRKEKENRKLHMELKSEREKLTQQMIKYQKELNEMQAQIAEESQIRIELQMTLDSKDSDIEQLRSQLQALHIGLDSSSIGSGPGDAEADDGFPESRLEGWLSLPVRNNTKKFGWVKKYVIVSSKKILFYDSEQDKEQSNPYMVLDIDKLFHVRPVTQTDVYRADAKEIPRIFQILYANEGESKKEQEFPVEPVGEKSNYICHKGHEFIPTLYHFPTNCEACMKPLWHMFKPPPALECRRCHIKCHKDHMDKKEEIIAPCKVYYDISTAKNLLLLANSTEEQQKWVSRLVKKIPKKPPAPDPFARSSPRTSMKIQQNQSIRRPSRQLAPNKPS
Chain of ROCK1 (Q13464 whole entry): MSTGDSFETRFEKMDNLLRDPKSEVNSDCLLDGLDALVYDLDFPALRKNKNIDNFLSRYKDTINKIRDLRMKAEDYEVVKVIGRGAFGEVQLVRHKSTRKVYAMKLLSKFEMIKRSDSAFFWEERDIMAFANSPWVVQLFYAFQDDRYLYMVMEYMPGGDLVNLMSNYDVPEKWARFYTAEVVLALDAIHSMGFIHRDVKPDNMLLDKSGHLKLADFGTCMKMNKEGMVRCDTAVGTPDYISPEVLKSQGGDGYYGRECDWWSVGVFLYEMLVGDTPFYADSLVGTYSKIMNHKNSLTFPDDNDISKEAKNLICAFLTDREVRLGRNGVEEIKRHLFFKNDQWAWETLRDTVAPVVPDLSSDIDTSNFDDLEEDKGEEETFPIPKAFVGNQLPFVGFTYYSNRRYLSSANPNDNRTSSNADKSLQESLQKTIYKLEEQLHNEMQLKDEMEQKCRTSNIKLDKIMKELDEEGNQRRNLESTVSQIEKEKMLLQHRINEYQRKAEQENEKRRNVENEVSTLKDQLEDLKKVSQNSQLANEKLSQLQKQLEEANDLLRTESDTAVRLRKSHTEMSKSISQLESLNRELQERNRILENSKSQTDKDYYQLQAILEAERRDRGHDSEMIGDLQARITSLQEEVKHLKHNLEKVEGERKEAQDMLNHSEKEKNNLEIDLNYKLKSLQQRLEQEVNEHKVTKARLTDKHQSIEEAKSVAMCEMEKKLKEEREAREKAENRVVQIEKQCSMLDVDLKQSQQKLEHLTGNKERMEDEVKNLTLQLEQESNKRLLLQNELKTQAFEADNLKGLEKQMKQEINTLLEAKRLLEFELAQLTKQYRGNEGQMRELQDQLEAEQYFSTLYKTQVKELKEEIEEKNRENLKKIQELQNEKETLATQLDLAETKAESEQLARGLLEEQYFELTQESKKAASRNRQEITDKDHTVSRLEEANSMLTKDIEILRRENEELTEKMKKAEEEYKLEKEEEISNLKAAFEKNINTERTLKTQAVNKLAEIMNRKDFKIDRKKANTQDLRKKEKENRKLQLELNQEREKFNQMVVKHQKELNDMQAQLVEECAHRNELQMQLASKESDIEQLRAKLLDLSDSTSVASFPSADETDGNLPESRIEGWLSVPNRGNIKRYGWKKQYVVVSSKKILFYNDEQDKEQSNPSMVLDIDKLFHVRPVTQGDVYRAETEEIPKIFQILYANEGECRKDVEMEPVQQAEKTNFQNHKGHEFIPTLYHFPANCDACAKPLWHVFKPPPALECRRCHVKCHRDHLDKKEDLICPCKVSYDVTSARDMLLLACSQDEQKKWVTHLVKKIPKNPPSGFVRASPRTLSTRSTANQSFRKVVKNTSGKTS

Row | Structure (SMILES) | IC50 (ROCK1) | IC50 (ROCK2)
1 | COc1cccc(C(CO)NC(=O)c2cc(F)cc(-c3ccc4[nH]ncc4c3)c2)c1 (stereo not drawn) [Compound 12] | 257 nM | 12 nM
2 | NCC(NC(=O)c1cccc(-c2ccc3[nH]nc(F)c3c2)c1)c1cccc(F)c1 (stereo not drawn) [Compound 41] |  | 21 nM
3 | COc1cccc(C(CNC(C)C)NC(=O)c2cc(-c3ccc4[nH]nc(C)c4c3)ccn2)c1 (stereo not drawn) [Compound 70] |  | 24 nM
4 | COc1cccc(C(CN)NC(=O)c2cc(CN3CCCC3)cc(-c3ccc4[nH]nc(C)c4c3)c2)c1 (stereo not drawn) [Compound 39] | 429 nM | 15 nM
5 | COc1cccc(C(CN)NC(=O)c2cc(-c3ccc4[nH]nc(F)c4c3)ccc2OC(F)F)c1 (stereo not drawn) [Compound 48] | 84 nM | 9 nM
6 | COc1cccc(C(CN)NC(=O)c2cccc(-c3ccc4[nH]nc(F)c4c3)c2)c1 (stereo not drawn) [Compound 54] | 180 nM | 21 nM
7 | COc1cccc(C(CCN(C)C)NC(=O)c2cccc(-c3ccc4[nH]ncc4c3)c2)c1 (stereo not drawn) [Compound 8] | 166 nM | 10 nM
8 | O=C(NC(CO)c1ccc(F)c(F)c1)c1cccc(-c2ccc3[nH]ncc3c2)c1 (stereo not drawn) [Compound 18] |  | 29 nM
9 | COc1cccc(CNC(=O)c2cccc(-c3ccc4[nH]ncc4c3)c2)c1 [Compound 21] |  | 3 nM
10 | COc1cccc(C(CN)NC(=O)c2cc(-c3ccc4[nH]nc(F)c4c3)ccc2OC)c1 (stereo not drawn) [Compound 51] | 50 nM | 7 nM
11 | COc1cccc(C(CN)NC(=O)c2cccc(-c3cc(OC)c4[nH]ncc4c3)c2)c1 (stereo not drawn) [Compound 71] | 758 nM | 9 nM
12 | COc1cccc(C2(NC(=O)c3cccc(-c4ccc5[nH]nc(F)c5c4)c3)CCNC2)c1 (stereo not drawn) [Compound 45] | 1270 nM | 19 nM
13 | COc1cccc(C(CO)NC(=O)c2cccc(-c3ccc4[nH]ncc4c3)c2)c1 (stereo not drawn) [Compound 5] | 33 nM | 6 nM
14 | COc1cccc(C(CN)NC(=O)c2cccc(-c3ccc4[nH]nc(C)c4c3)c2)c1 (stereo not drawn) [Compound 30] | 43 nM | 3 nM
15 | COc1cccc(C2(NC(=O)c3cc(-c4ccc5[nH]nc(C)c5c4)ccn3)CCNC2)c1 (stereo not drawn) [Compound 46] | 267 nM | 8 nM
16 | COc1cc(C(=O)NC(CN)c2cccc(OC)c2)cc(-c2ccc3[nH]nc(C)c3c2)c1 (stereo not drawn) [Compound 52] | 182 nM | 10 nM
17 | CNCC(NC(=O)c1cccc(-c2ccc3[nH]nc(C)c3c2)c1)c1cccc(OC)c1 (stereo not drawn) [Compound 65] | 138 nM | 4 nM
18 | COc1cccc(C(CN)NC(=O)c2cc(-c3ccc4[nH]nc(C)c4c3)ccc2OC)c1 (stereo not drawn) [Compound 50] | 56 nM | 5 nM
19 | COc1cccc(C(CN)NC(=O)c2cc(-c3ccc4[nH]nc(C)c4c3)cc3cccnc23)c1 (stereo not drawn) [Compound 34] | 1430 nM | 17 nM
20 | O=C(NC(CO)c1cccc(F)c1)c1cccc(-c2ccc3[nH]nc(F)c3c2)c1 (stereo not drawn) [Compound 60] | 215 nM | 44 nM
21 | Cc1cccc(C(CN)NC(=O)c2cc(-c3ccc4[nH]nc(C)c4c3)ccn2)c1 (stereo not drawn) [Compound 67] | 336 nM | 22 nM

Row | Structure (SMILES) | IC50 (ROCK1) | IC50 (ROCK2)
22 | COc1cc(C(=O)NC(CN)c2cccc(OC)c2)cc(-c2ccc3[nH]nc(F)c3c2)c1 (stereo not drawn) [Compound 53] | 1090 nM | 20 nM
23 | COc1cccc(C(CN(C)C)NC(=O)c2cccc(-c3ccc4[nH]ncc4c3)c2)c1 (stereo not drawn) [Compound 10] | 79 nM | 6 nM
24 | COc1cccc(C(CN2CCNCC2)NC(=O)c2cccc(-c3ccc4[nH]nc(C)c4c3)c2)c1 (stereo not drawn) [Compound 56] | 2300 nM | 44 nM
25 | COc1cccc(C(CN)NC(=O)c2cccc(-c3ccc4[nH]nc(F)c4c3)c2)c1 (stereo not drawn) [Compound 28] | 43 nM | 13 nM
26 | O=C(NC(CO)c1cccc(F)c1F)c1cccc(-c2ccc3[nH]ncc3c2)c1 (stereo not drawn) [Compound 19] | 735 nM | 35 nM
27 | COc1cccc(C(CCO)NC(=O)c2cccc(-c3ccc4[nH]ncc4c3)c2)c1 (stereo not drawn) [Compound 2] | 79 nM | < 1 nM
28 | COc1cccc(C(CN)NC(=O)c2cc(CN3CCCC3)cc(-c3ccc4[nH]nc(F)c4c3)c2)c1 (stereo not drawn) [Compound 58] | 1610 nM | 48 nM
29 | O=C(NC(CN1CCCC1)c1cccc(F)c1)c1cccc(-c2ccc3[nH]ncc3c2)c1 (stereo not drawn) [Compound 24] | 126 nM | 14 nM
30 | COc1cccc(C(CN2CCCC2)NC(=O)c2cccc(-c3ccc4[nH]nc(C)c4c3)c2)c1 (stereo not drawn) [Compound 37] | 290 nM | 7 nM
31 | COc1cccc(C(CNC(C)C)NC(=O)c2cccc(-c3ccc4[nH]nc(C)c4c3)c2)c1 (stereo not drawn) [Compound 38] | 75 nM | 14 nM
32 | O=C(NC(CO)c1cccc(F)c1)c1cccc(-c2ccc3[nH]ncc3c2)c1 (stereo not drawn) [Compound 22] | 52 nM | 6 nM
33 | O=C(NC(CO)c1cc(F)ccc1F)c1cccc(-c2ccc3[nH]ncc3c2)c1 (stereo not drawn) [Compound 16] | 259 nM | 26 nM
34 | COc1cccc(C(CO)NC(=O)c2ccc(F)c(-c3ccc4[nH]ncc4c3)c2)c1 (stereo not drawn) [Compound 11] | 79 nM | 5 nM
35 | COc1cccc(C(CO)NC(=O)c2cc(-c3ccc4[nH]ncc4c3)ccc2F)c1 (stereo not drawn) [Compound 15] | 278 nM | 12 nM
36 | COc1cccc(C(CCO)NC(=O)c2cncc(-c3ccc4[nH]ncc4c3)c2)c1 (stereo not drawn) [Compound 3] | 765 nM | 11 nM
37 | COc1cccc(C(CCO)NC(=O)c2ccnc(-c3ccc4[nH]ncc4c3)c2)c1 (stereo not drawn) [Compound 1] | 1640 nM | 21 nM
38 | COc1cccc(C(CN)NC(=O)c2cccc(-c3ccc4[nH]nc(N)c4c3)c2)c1 (stereo not drawn) [Compound 29] | 65 nM | 7 nM
39 | COCCC(NC(=O)c1cccc(-c2ccc3[nH]ncc3c2)c1)c1cccc(OC)c1 (stereo not drawn) [Compound 31] | 223 nM | 20 nM
40 | O=C(NC(CCO)c1cccc(Cl)c1)c1cccc(-c2ccc3[nH]ncc3c2)c1 (stereo not drawn) [Compound 13] | 139 nM | 16 nM
41 | Cc1n[nH]c2ccc(-c3cccc(C(=O)NC(CO)c4cccc(F)c4)c3)cc12 (stereo not drawn) [Compound 59] | 94 nM | 16 nM
42 | NCC(NC(=O)c1cccc(-c2ccc3[nH]ncc3c2)c1)c1cccc(F)c1 (stereo not drawn) [Compound 23] | 29 nM | 7 nM

Row | Structure (SMILES) | IC50 (ROCK1) | IC50 (ROCK2)
43 | COc1cccc(C(CN)NC(=O)c2cccc(-c3ccc4[nH]nc(C5CC5)c4c3)c2)c1 (stereo not drawn) [Compound 68] |  | 8 nM
44 | COc1cccc(C(CN)NC(=O)c2cc(-c3ccc4[nH]nc(C)c4c3)ccc2OC(F)F)c1 (stereo not drawn) [Compound 47] | 67 nM | 12 nM
45 | O=C(NC(CCO)c1ccccc1F)c1cccc(-c2ccc3[nH]ncc3c2)c1 (stereo not drawn) [Compound 20] | 304 nM | 35 nM
46 | COc1cccc(C(CN2CCCC2)NC(=O)c2cccc(-c3ccc4[nH]ncc4c3)c2)c1 (stereo not drawn) [Compound 14] | 103 nM | 8 nM
47 | O=C(NC(CO)c1cc(F)cc(F)c1)c1cccc(-c2ccc3[nH]ncc3c2)c1 (stereo not drawn) [Compound 17] |  | 23 nM
48 | COc1cccc(C(CN)NC(=O)c2cc(-c3ccc4[nH]nc(C)c4c3)cc3c2CNC3)c1 (stereo not drawn) [Compound 33] |  | 16 nM
49 | Cc1n[nH]c2ccc(-c3cccc(C(=O)NC(CN)c4cccc(Cl)c4)c3)cc12 (stereo not drawn) [Compound 43] | 153 nM | 6 nM
50 | O=C(NC(CCO)c1cccc(F)c1)c1cccc(-c2ccc3[nH]ncc3c2)c1 (stereo not drawn) [Compound 6] | 63 nM | 7 nM
51 | NCC(NC(=O)c1cccc(-c2ccc3[nH]nc(F)c3c2)c1)c1cccc(F)c1F (stereo not drawn) [Compound 62] | 289 nM | 48 nM
52 | COc1cccc(C(CCO)NC(=O)c2cc(-c3ccc4[nH]ncc4c3)ccn2)c1 (stereo not drawn) [Compound 4] | 288 nM | 6 nM
53 | COc1cccc(C(CO)NC(=O)c2cccc(-c3ccc4[nH]nc(N)c4c3)c2)c1 (stereo not drawn) [Compound 27] | 407 nM | 30 nM
54 | COc1cccc(C(CCN)NC(=O)c2cccc(-c3ccc4[nH]ncc4c3)c2)c1 (stereo not drawn) [Compound 7] | 24 nM | 4 nM
55 | Cc1n[nH]c2ccc(-c3cccc(C(=O)NC(CN)c4cccc(OC5CC5)c4)c3)cc12 (stereo not drawn) [Compound 63] |  | 35 nM
56 | Cc1n[nH]c2ccc(-c3cccc(C(=O)NC(CN)c4cccc(F)c4)c3)cc12 (stereo not drawn) [Compound 42] |  | 4 nM
57 | COc1cccc(C(CN)NC(=O)c2cccc(-c3ccc4[nH]ncc4c3)c2)c1 (stereo not drawn) [Compound 9] | 25 nM | 4 nM
58 | COc1cccc(C(CN)NC(=O)c2cc(-c3ccc4[nH]nc(C)c4c3)ncn2)c1 (stereo not drawn) [Compound 69] |  | 12 nM
59 | COc1cccc(C2(NC(=O)c3cccc(-c4ccc5[nH]nc(C)c5c4)c3)CCNC2)c1 (stereo not drawn) [Compound 44] | 106 nM | 4 nM
60 | COc1cccc(C(CN2CCNCC2)NC(=O)c2cccc(-c3ccc4[nH]nc(F)c4c3)c2)c1 (stereo not drawn) [Compound 55] | 4120 nM | 51 nM
61 | COc1cccc(C(CN)NC(=O)c2cc(C#N)cc(-c3ccc4[nH]nc(C)c4c3)c2)c1 (stereo not drawn) [Compound 57] | 1260 nM | 58 nM
62 | COc1cccc(C(CN2CCNCC2)NC(=O)c2cccc(-c3ccc4[nH]ncc4c3)c2)c1 (stereo not drawn) [Compound 32] | 343 nM | 23 nM

From patent US11345678B2, “Benzopyrazole compound used as RHO kinase inhibitor” (MEDSHINE DISCOVERY INC., priority 2018, dated 2022)
